From patent US12471596B2 (priority 2019, dated 2025)

How the values were obtained:
Phytophthora infestans [1] = assay: whole plant or invertebrate; assay type: in vivo, Phytophthora infestans on tomato plants; conditions: in Solanum lycopersicum, 24 h, read-out: control compared to the untreated check
Phytophthora infestans [2] = assay: microbe, parasite or virus in culture; assay type: cell-based; conditions: in Secale cereale, 168 h, read-out: control compared to the untreated check

Row | Structure (SMILES) | pest or weed control at 50 ppm (Phytophthora infestans [1]) | inhibition of growth at 30 ppm (Phytophthora infestans [2])
1 | COc1ccnc(OCC(=O)N2CCC(c3nc(C4=NOC(c5c(Cl)cccc5Cl)C4)cs3)CC2)n1 (centres unmarked) [Compound 33, 1-(4-(4-(5-(2,6-dichlorophenyl)-4,5-dihydroisoxazol-3-yl)thiazol-2-yl)piperidin-1-yl)-2-((4-methoxypyrimidin-2-yl)oxy)ethan-1-one] | ≥ 70% | ≥ 70%
2 | COc1ccnc(OCC(=O)N2CCC(c3nc(C4=NOC(c5c(F)cccc5Cl)C4)cs3)CC2)n1 (centres unmarked) [Compound 34, 1-(4-(4-(5-(2-chloro-6-fluorophenyl)-4,5-dihydroisoxazol-3-yl)thiazol-2-yl)piperidin-1-yl)-2-((4-methoxypyrimidin-2-yl)oxy)ethan-1-one] | ≥ 70% | ≥ 70%
3 | O=C(COc1ccc(C(F)(F)F)nn1)N1CCC(c2nc(C3=NOC(c4c(F)cccc4Br)C3)cs2)CC1 (centres unmarked) [Compound 43, 1-(4-(4-(5-(2-bromo-6-fluorophenyl)-4,5-dihydroisoxazol-3-yl)thiazol-2-yl)piperidin-1-yl)-2-((6-(trifluoromethyl)pyridazin-3-yl)oxy)ethan-1-one] | ≥ 70% | ≥ 70%
4 | CS(=O)(=O)Oc1cccc(Cl)c1C1CC(c2csc(C3CCN(C(=O)COc4nccnc4C(F)(F)F)CC3)n2)=NO1 (centres unmarked) [Compound 6, 3-chloro-2-(3-(2-(1-(2-((3-(trifluoromethyl)pyrazin-2-yl)oxy)acetyl)piperidin-4-yl)thiazol-4-yl)-4,5-dihydroisoxazol-5-yl)phenyl methanesulfonate] | ≥ 70% | ≥ 70%
5 | COc1nccnc1OCC(=O)N1CCC(c2nc(C3=NOC(c4c(Cl)cccc4C#N)C3)cs2)CC1 (centres unmarked) [Compound 26, 3-chloro-2-(3-(2-(1-(2-((3-methoxypyrazin-2-yl)oxy)acetyl)piperidin-4-yl)thiazol-4-yl)-4,5-dihydroisoxazol-5-yl)benzonitrile] | ≥ 70% | ≥ 70%
6 | O=C(COc1ccc(C(F)(F)F)nn1)N1CCC(c2nc(C3=NOC(c4c(Cl)cccc4Cl)C3)cs2)CC1 (centres unmarked) [Compound 38, 1-(4-(4-(5-(2,6-dichlorophenyl)-4,5-dihydroisoxazol-3-yl)thiazol-2-yl)piperidin-1-yl)-2-((6-(trifluoromethyl)pyridazin-3-yl)oxy)ethan-1-one] | ≥ 70% | ≥ 70%
7 | COc1nccnc1OCC(=O)N1CCC(c2nc(C3=NOC(c4c(F)cccc4F)C3)cs2)CC1 (centres unmarked) [Compound 27, 1-(4-(4-(5-(2,6-difluorophenyl)-4,5-dihydroisoxazol-3-yl)thiazol-2-yl)piperidin-1-yl)-2-((3-methoxypyrazin-2-yl)oxy)ethan-1-one] | ≥ 70% | ≥ 70%
8 | CS(=O)(=O)Oc1cccc(Cl)c1C1CC(c2csc(C3CCN(C(=O)COc4cc(C(F)(F)F)ncn4)CC3)n2)=NO1 (centres unmarked) [Compound 7, 3-chloro-2-(3-(2-(1-(2-((6-(trifluoromethyl)pyrimidin-4-yl)oxy)acetyl)piperidin-4-yl)thiazol-4-yl)-4,5-dihydroisoxazol-5-yl)phenyl methanesulfonate] | ≥ 70% | ≥ 70%
9 | COc1nccnc1OCC(=O)N1CCC(c2nc(C3=NOC(c4c(Cl)cccc4OS(C)(=O)=O)C3)cs2)CC1 (centres unmarked) [Compound 29, 3-chloro-2-(3-(2-(1-(2-((3-methoxypyrazin-2-yl)oxy)acetyl)piperidin-4-yl)thiazol-4-yl)-4,5-dihydroisoxazol-5-yl)phenyl methanesulfonate] | ≥ 70% | ≥ 70%
10 | O=C(COc1cc(C(F)(F)F)ncn1)N1CCC(c2nc(C3=NOC(c4c(Cl)cccc4Cl)C3)cs2)CC1 (centres unmarked) [Compound 14, 1-(4-(4-(5-(2,6-dichlorophenyl)-4,5-dihydroisoxazol-3-yl)thiazol-2-yl)piperidin-1-yl)-2-((6-(trifluoromethyl)pyrimidin-4-yl)oxy)ethan-1-one] | ≥ 70% | ≥ 70%
11 | COc1ccnc(OCC(=O)N2CCC(c3nc(C4=NOC(c5c(F)cccc5F)C4)cs3)CC2)n1 (centres unmarked) [Compound 36, 1-(4-(4-(5-(2,6-difluorophenyl)-4,5-dihydroisoxazol-3-yl)thiazol-2-yl)piperidin-1-yl)-2-((4-methoxypyrimidin-2-yl)oxy)ethan-1-one] | ≥ 70% | ≥ 70%
12 | O=C(COc1ccc(C(F)(F)F)nn1)N1CCC(c2nc(C3=NOC(c4c(Cl)cc(Cl)cc4Cl)C3)cs2)CC1 (centres unmarked) [Compound 37, 1-(4-(4-(5-(2,4,6-trichlorophenyl)-4,5-dihydroisoxazol-3-yl)thiazol-2-yl)piperidin-1-yl)-2-((6-(trifluoromethyl)pyridazin-3-yl)oxy)ethan-1-one] | ≥ 70% | ≥ 70%
13 | COc1nccnc1OCC(=O)N1CCC(c2nc(C3=NOC(c4c(F)cccc4Cl)C3)cs2)CC1 (centres unmarked) [Compound 25, 1-(4-(4-(5-(2-chloro-6-fluorophenyl)-4,5-dihydroisoxazol-3-yl)thiazol-2-yl)piperidin-1-yl)-2-((3-methoxypyrazin-2-yl)oxy)ethan-1-one] | ≥ 70% | ≥ 70%
14 | COc1ccnc(OCC(=O)N2CCC(c3nc(C4=NOC(c5c(Cl)cc(Cl)cc5Cl)C4)cs3)CC2)n1 (centres unmarked) [Compound 35, 2-((4-methoxypyrimidin-2-yl)oxy)-1-(4-(4-(5-(2,4,6-trichlorophenyl)-4,5-dihydroisoxazol-3-yl)thiazol-2-yl)piperidin-1-yl)ethan-1-one] | ≥ 70% | –
15 | COc1ccnc(OCC(=O)N2CCC(c3nc(C4=NOC(c5c(Cl)cccc5OS(C)(=O)=O)C4)cs3)CC2)n1 (centres unmarked) [Compound 32, 3-chloro-2-(3-(2-(1-(2-((4-methoxypyrimidin-2-yl)oxy)acetyl)piperidin-4-yl)thiazol-4-yl)-4,5-dihydroisoxazol-5-yl)phenyl methanesulfonate] | ≥ 70% | ≥ 70%
16 | O=C(COc1ccnc(C(F)(F)F)n1)N1CCC(c2nc(C3=NOC(c4c(F)cccc4Br)C3)cs2)CC1 (centres unmarked) [Compound 15, 1-(4-(4-(5-(2-bromo-6-fluorophenyl)-4,5-dihydroisoxazol-3-yl)thiazol-2-yl)piperidin-1-yl)-2-((2-(trifluoromethyl)pyrimidin-4-yl)oxy)ethan-1-one] | ≥ 70% | ≥ 70%
17 | N#Cc1cccc(Cl)c1C1CC(c2csc(C3CCN(C(=O)COc4ccc(C(F)(F)F)nn4)CC3)n2)=NO1 (centres unmarked) [Compound 40, 3-chloro-2-(3-(2-(1-(2-((6-(trifluoromethyl)pyridazin-3-yl)oxy)acetyl)piperidin-4-yl)thiazol-4-yl)-4,5-dihydroisoxazol-5-yl)benzonitrile] | ≥ 70% | ≥ 70%
18 | O=C(COc1nccnc1C(F)(F)F)N1CCC(c2nc(C3=NOC(c4c(Cl)cccc4C(F)(F)F)C3)cs2)CC1 (centres unmarked) [Compound 4, 1-(4-(4-(5-(2-chloro-6-(trifluoromethyl)phenyl)-4,5-dihydroisoxazol-3-yl)thiazol-2-yl)piperidin-1-yl)-2-((3-(trifluoromethyl)pyrazin-2-yl)oxy)ethan-1-one] | ≥ 70% | ≥ 70%
19 | O=C(COc1ccc(C(F)(F)F)nn1)N1CCC(c2nc(C3=NOC(c4c(F)cccc4F)C3)cs2)CC1 (centres unmarked) [Compound 42, 1-(4-(4-(5-(2,6-difluorophenyl)-4,5-dihydroisoxazol-3-yl)thiazol-2-yl)piperidin-1-yl)-2-((6-(trifluoromethyl)pyridazin-3-yl)oxy)ethan-1-one] | ≥ 70% | ≥ 70%
20 | O=C(COc1nccnc1C(F)(F)F)N1CCC(c2nc(C3=NOC(c4c(F)cccc4F)C3)cs2)CC1 (centres unmarked) [Compound 5, 1-(4-(4-(5-(2,6-difluorophenyl)-4,5-dihydroisoxazol-3-yl)thiazol-2-yl)piperidin-1-yl)-2-((3-(trifluoromethyl)pyrazin-2-yl)oxy)ethan-1-one] | ≥ 70% | ≥ 70%
21 | COc1ncc(OCC(=O)N2CCC(c3nc(C4=NOC(c5c(F)cccc5Br)C4)cs3)CC2)cn1 (centres unmarked) [Compound 134, 1-(4-(4-(5-(2-bromo-6-fluorophenyl)-4,5-dihydroisoxazol-3-yl)thiazol-2-yl)piperidin-1-yl)-2-((2-methoxypyrimidin-5-yl)oxy)ethan-1-one] | – | ≥ 70%
22 | O=C(COc1cncc(C(F)(F)F)n1)N1CCC(c2nc(C3=NOC(c4c(F)cccc4Cl)C3)cs2)CC1 (centres unmarked) [Compound 53, 1-(4-(4-(5-(2-chloro-6-fluorophenyl)-4,5-dihydroisoxazol-3-yl)thiazol-2-yl)piperidin-1-yl)-2-((6-(trifluoromethyl)pyrazin-2-yl)oxy)ethan-1-one] | – | ≥ 70%
23 | CS(=O)(=O)c1nccnc1OCC(=O)N1CCC(c2nc(C3=NOC(c4c(F)cccc4Br)C3)cs2)CC1 (centres unmarked) [Compound 159, 1-(4-(4-(5-(2-bromo-6-fluorophenyl)-4,5-dihydroisoxazol-3-yl)thiazol-2-yl)piperidin-1-yl)-2-((3-(methylsulfonyl)pyrazin-2-yl)oxy)ethan-1-one] | – | ≥ 70%
24 | COc1cncc(OCC(=O)N2CCC(c3nc(C4=NOC(c5c(Cl)cccc5Cl)C4)cs3)CC2)n1 (centres unmarked) [Compound 99, 1-(4-(4-(5-(2,6-dichlorophenyl)-4,5-dihydroisoxazol-3-yl)thiazol-2-yl)piperidin-1-yl)-2-((6-methoxypyrazin-2-yl)oxy)ethan-1-one] | – | ≥ 70%
25 | COc1cncc(OCC(=O)N2CCC(c3nc(C4=NOC(c5c(Cl)ccc(F)c5F)C4)cs3)CC2)n1 (centres unmarked) [Compound 104, 1-(4-(4-(5-(6-chloro-2,3-difluorophenyl)-4,5-dihydroisoxazol-3-yl)thiazol-2-yl)piperidin-1-yl)-2-((6-methoxypyrazin-2-yl)oxy)ethan-1-one] | – | ≥ 70%
